Here are results for 2 molecules from paper PMC4857387, “The Arabidopsis NPF3 protein is a GA transporter” (Nature Communications, 2016).

One data set deals with T1, NPF4.1 (AIT3) (Arabidopsis thaliana, UniProt Q9LSF0).
T1 sequence (Q9LSF0 1-515): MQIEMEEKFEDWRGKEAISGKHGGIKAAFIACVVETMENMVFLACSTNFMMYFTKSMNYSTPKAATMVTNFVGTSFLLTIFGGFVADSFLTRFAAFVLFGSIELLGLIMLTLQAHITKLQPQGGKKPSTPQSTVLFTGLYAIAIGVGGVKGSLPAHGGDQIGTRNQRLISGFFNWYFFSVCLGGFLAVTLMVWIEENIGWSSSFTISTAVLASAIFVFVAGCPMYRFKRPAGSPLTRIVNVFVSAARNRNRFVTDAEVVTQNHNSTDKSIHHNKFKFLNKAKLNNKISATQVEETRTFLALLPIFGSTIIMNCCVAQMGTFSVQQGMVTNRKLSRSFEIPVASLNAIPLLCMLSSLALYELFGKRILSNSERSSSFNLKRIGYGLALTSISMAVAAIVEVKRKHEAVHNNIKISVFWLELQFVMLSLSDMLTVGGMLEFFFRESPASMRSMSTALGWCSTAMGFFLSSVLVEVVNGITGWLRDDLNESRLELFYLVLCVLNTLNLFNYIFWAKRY
The data set is described as follows: competition of GA4 uptake in Xenopus oocytes, LC-MS. It is filed as cell-based. The note with it: 300 uM GA4 with 5 mM JA-Ile.

Substrate in data set [1]: C=C1C[C@]23C[C@H]1CC[C@H]2[C@@]12CC[C@H](O)[C@@](C)(C(=O)O1)[C@H]2[C@@H]3C(=O)O
Put plainly: uptake into Xenopus oocytes, LC-MS. It is filed as cell-based, Arabidopsis thaliana. Particulars: pH 5, 60 min incubation, diffusion into non-injected oocytes subtracted, judged by authors a likely overestimation.

In the case of `CC/C=C\C[C@H]1C(=O)CC[C@@H]1CC(=O)N[C@H](C(=O)O)[C@@H](C)CC` [JA-Ile], the “inhibition of GA4 uptake at 5 mM” value on NPF4.1 (AIT3) is recorded as “JA-Ile strongly inhibited GA4 uptake”.

B1: NPF3 (NPF3.1, AtNPF3.1) (Arabidopsis thaliana) (protein)
chain: MEEQSKNKISEEEKQLHGRPNRPKGGLITMPFIFANEICEKLAVVGFHANMISYLTTQLHLPLTKAANTLTNFAGTSSLTPLLGAFIADSFAGRFWTITFASIIYQIGMTLLTISAIIPTLRPPPCKGEEVCVVADTAQLSILYVALLLGALGSGGIRPCVVAFGADQFDESDPNQTTKTWNYFNWYYFCMGAAVLLAVTVLVWIQDNVGWGLGLGIPTVAMFLSVIAFVGGFQLYRHLVPAGSPFTRLIQVGVAAFRKRKLRMVSDPSLLYFNDEIDAPISLGGKLTHTKHMSFLDKAAIVTEEDNLKPGQIPNHWRLSTVHRVEELKSVIRMGPIGASGILLITAYAQQGTFSLQQAKTMNRHLTNSFQIPAGSMSVFTTVAMLTTIIFYDRVFVKVARKFTGLERGITFLHRMGIGFVISIIATLVAGFVEVKRKSVAIEHGLLDKPHTIVPISFLWLIPQYGLHGVAEAFMSIGHLEFFYDQAPESMRSTATALFWMAISIGNYVSTLLVTLVHKFSAKPDGSNWLPDNNLNRGRLEYFYWLITVLQAVNLVYYLWCAKIYTYKPVQVHHSKEDSSPVKEELQLSNRSLVDE
notes: putative 12 transmembrane domains
For the molecule B1, the Km in data set [1] is 500 µM.

The term Km denotes the substrate concentration at which the rate is half of its maximum.
